In this assay the target is AAK1 (full length human) (Homo sapiens, UniProt Q2M2I8). Put plainly: HEK281 Cell-Based Assay (phospho-mu2 Western blot in HEK293F cells transfected with AAK1 and AP2M1). To be noted: IC50 (nM), functional potency; inhibition of mu2 phosphorylation in HEK293F cells, 3 hours incubation, 5 concentrations.
AAK1 (full length human), sequence (Q2M2I8 1-863 isoform Q2M2I8-2): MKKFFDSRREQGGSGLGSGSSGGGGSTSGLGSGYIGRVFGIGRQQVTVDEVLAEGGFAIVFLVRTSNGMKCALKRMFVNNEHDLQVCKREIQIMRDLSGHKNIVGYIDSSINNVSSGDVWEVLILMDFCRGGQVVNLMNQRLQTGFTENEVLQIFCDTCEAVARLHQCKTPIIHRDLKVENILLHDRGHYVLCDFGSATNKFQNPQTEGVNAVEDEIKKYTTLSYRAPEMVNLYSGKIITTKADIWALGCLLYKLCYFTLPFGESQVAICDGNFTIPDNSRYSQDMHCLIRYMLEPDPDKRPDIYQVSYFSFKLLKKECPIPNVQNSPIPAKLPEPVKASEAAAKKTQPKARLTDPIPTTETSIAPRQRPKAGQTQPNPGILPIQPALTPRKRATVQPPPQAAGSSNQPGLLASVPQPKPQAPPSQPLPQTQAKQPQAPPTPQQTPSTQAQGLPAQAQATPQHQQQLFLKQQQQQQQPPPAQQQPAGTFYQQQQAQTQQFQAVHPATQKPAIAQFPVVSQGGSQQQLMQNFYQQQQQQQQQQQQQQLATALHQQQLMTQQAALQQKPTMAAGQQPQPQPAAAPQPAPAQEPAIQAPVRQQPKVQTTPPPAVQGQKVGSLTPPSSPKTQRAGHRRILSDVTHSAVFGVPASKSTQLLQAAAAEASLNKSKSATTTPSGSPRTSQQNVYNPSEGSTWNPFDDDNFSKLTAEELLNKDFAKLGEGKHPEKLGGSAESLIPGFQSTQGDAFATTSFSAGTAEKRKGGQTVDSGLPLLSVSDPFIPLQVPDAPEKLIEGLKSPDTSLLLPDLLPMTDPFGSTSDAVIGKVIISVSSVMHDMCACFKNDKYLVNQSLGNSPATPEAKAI

`CSc1nc(CCC(C)C)nc2ccc(-c3cnco3)cc12` [Example 43, 5-(2-Isopentyl-4-(methylthio)quinazolin-6-yl)oxazole] gave an IC50 of 159 nM.
The result for `CC(C)CCc1nc(NCCN)c2cc(-c3cnco3)ccc2n1` [Example 44, N^1-(2-Isopentyl-6-(oxazol-5-yl)quinazolin-4-yl)ethane-1,2-diamine] reads 2010 nM.
In turn, `CCc1nc(CCC(C)C)nc2ccc(-c3ccncc3)cc12` [Example 45, 4-Ethyl-2-isopentyl-6-(pyridin-4-yl)quinazoline] gave an IC50 of 400 nM.
Consider `CC(C)CCc1nc(C(C)C)c2cc(-c3ccncc3)ccc2n1` [Example 46, 2-Isopentyl-4-isopropyl-6-(pyridin-4-yl)quinazoline], for which the half-inhibitory concentration (IC50) worked out at 1390 nM.
In turn, `CC(C)CCc1nc(C2CC2)c2cc(-c3ccncc3)ccc2n1` [Example 47, 4-Cyclopropyl-2-isopentyl-6-(pyridin-4-yl)quinazoline] yielded an IC50 of 1340 nM.
`CC(C)CCc1nc(NCCN(C)C)c2cc(-c3ccncc3)ccc2n1` [Example 48, N-(2-Isopentyl-6-(pyridin-4-yl)quinazolin-4-yl)-N^2,N^2-dimethylethane-1,2-diamine] showed an IC50 of 1190 nM.
The compound `CC(C)CCc1nc2ccc(-c3ccncc3)cc2c(=O)[nH]1` [Example 49, 2-Isopentyl-6-(pyridin-4-yl)quinazolin-4(3H)-one] registered an IC50 of 54 nM. This IC50 is about 22-fold lower than that of the compound before.
On to `CC(C)CCc1nc(NCCO)c2cc(-c3ccncc3)ccc2n1` [Example 50, 2-(2-Isopentyl-6-(pyridin-4-yl)quinazolin-4-ylamino)ethanol], for which it took 301 nM to reach half-maximal inhibition (IC50).
For the compound `CC(C)CCc1nc2ccc(-c3cn[nH]c3)cc2c(=O)[nH]1` [Example 51, 2-Isopentyl-6-(1H-pyrazol-4-yl)quinazolin-4(3H)-one], inhibition was half-maximal at 22 nM (IC50).
`CCc1nc(CCC(C)C)nc2cc(OC)c(-c3cnco3)cc12` [Example 52, 5-(4-Ethyl-2-isopentyl-7-methoxyquinazolin-6-yl)oxazole] returned an IC50 of 1270 nM.
`CC(C)CCc1nc(C(N)=O)c2cc(-c3ccncc3)ccc2n1` [Example 53, 2-Isopentyl-6-(pyridin-4-yl)quinazoline-4-carboxamide] returned an IC50 of 354 nM.
Compound `CCOc1cc2nc(CCC(C)C)nc(CC)c2cc1-c1cnco1` [Example 54, 5-(7-Ethoxy-4-ethyl-2-isopentylquinazolin-6-yl) oxazole] gave an IC50 of 2590 nM.
Take `COc1nc(C(N)CC(C)C)nc2ccc(-c3ccncc3)cc12` (centres unmarked) [Example 55, 1-(4-Methoxy-6-(pyridin-4-yl)quinazolin-2-yl)-3-methylbutan-1-amine]: the IC50 was found to be 97 nM.
`CC(C)CCc1nc2ccc(-c3cnco3)cc2c(=S)[nH]1` [Example 56, 2-Isopentyl-6-(oxazol-5-yl)quinazoline-4(3H)-thione] came in with an IC50 of 5 nM.
As to `CCc1nc(CCC(C)C)nc2ccc(-c3cnco3)cc12` [Example 57, 5-(4-Ethyl-2-isopentylquinazolin-6-yl)oxazole], the IC50 came to 1860 nM.
`COc1cc2nc(CCC(C)C)[nH]c(=O)c2cc1-c1cnco1` [Example 58, 2-Isopentyl-7-methoxy-6-(oxazol-5-yl)quinazolin-4(3H)-one]: it took 20 nM to reach half-maximal inhibition (IC50). This IC50 lies about 93-fold lower than the previous one.
Turning to `CC(C)CCc1nc(C(=O)N(C)C)c2cc(-c3ccncc3)ccc2n1` [Example 59, 2-Isopentyl-N,N-dimethyl-6-(pyridin-4-yl)quinazoline-4-carboxamide], half-maximal inhibition (IC50) required 2670 nM. Against the preceding compound, the IC50 is about 130-fold higher.
In the case of `CC(C)CCc1nc(C#N)c2cc(-c3ccncc3)ccc2n1` [Example 60, 2-Isopentyl-6-(pyridin-4-yl)quinazoline-4-carbonitrile], the IC50 is 144 nM.
The same measure for `CC(C)CCC1=Nc2ccc(-c3ccncc3)cc2C(CO)N1` (centres unmarked) [Example 61, (2-Isopentyl-6-(pyridin-4-yl)-3,4-dihydroquinazolin-4-yl)methanol]: 35 nM; for `CCc1nc(C(N)CC(C)C)nc2ccc(-c3ccncc3)cc12` (centres unmarked) [Example 62, 1-(4-Ethyl-6-(pyridin-4-yl)quinazolin-2-yl)-3-methylbutan-1-amine]: 37 nM; for `CCc1nc(C(N)CC(C)C)nc2ccc(-c3cn[nH]c3)cc12` (centres unmarked) [Example 63, 1-(4-Ethyl-6-(1H-pyrazol-4-yl)quinazolin-2-yl)-3-methylbutan-1-amine]: 28 nM.
Take `CCc1nc(C(N)CC(C)C)nc2ccc(-c3ccncn3)cc12` (centres unmarked) [Example 64, 1-(4-Ethyl-6-(pyrimidin-4-yl)quinazolin-2-yl)-3-methylbutan-1-amine]: 83 nM corresponded to half-maximal inhibition (IC50).
`CCc1nc(C(C)CC(C)C)nc2ccc(-c3ccncc3)cc12` (centres unmarked) [Example 65, 4-Ethyl-2-(4-methylpentan-2-yl)-6-(pyridin-4-yl)quinazoline] had an IC50 of 223 nM.
`CCc1nc(C(C)CC(C)C)nc2ccc(-c3ccnc(NC(C)=O)c3)cc12` (centres unmarked) [Example 66, N-(4-(4-Ethyl-2-(4-methylpentan-2-yl)quinazolin-6-yl)pyridin-2-yl)acetamide]: the IC50 is 258 nM.
The same measure for `CCc1nc(C(C)CC(C)C)nc2ccc(-c3ccnc(NC)c3)cc12` (centres unmarked) [Example 67, 4-(4-Ethyl-2-(4-methylpentan-2-yl)quinazolin-6-yl)-N-methylpyridin-2-amine]: 1500 nM; for `CCc1nc(C(CN)CC(C)C)nc2ccc(-c3ccncc3)cc12` (centres unmarked) [Example 68, 2-(4-Ethyl-6-(pyridin-4-yl)quinazolin-2-yl)-4-methylpentan-1-amine]: 144 nM; for `CCc1nc(C(N)CCC(F)(F)F)nc2ccc(-c3ccncc3)cc12` (centres unmarked) [Example 69, 1-(4-Ethyl-6-(pyridin-4-yl)quinazolin-2-yl)-4,4,4-trifluorobutan-1-amine]: 32 nM.
Take `CCc1nc([C@H](N)CC2CC2)nc2ccc(-c3ccncc3)cc12` [Example 70, (R)-2-Cyclopropyl-1-(4-ethyl-6-(pyridin-4-yl)quinazolin-2-yl)ethanamine]: half-maximal inhibition (IC50) required 126 nM.
The same measure for `CCc1nc([C@H](N)C2CCCC2)nc2ccc(-c3ccncc3)cc12` [Example 71, (R)-Cyclopentyl(4-ethyl-6-(pyridin-4-yl)quinazolin-2-yl)methanamine]: 32 nM.
`CCc1nc([C@H](N)C2CCCCC2)nc2ccc(-c3ccncc3)cc12` [Example 72, (R)-Cyclohexyl(4-ethyl-6-(pyridin-4-yl)quinazolin-2-yl)methanamine] gave an IC50 of 13 nM.
Compound `CC(C)CC(N)c1nc(N2CCC2)c2cc(-c3ccncc3)ccc2n1` (centres unmarked) [Example 73, 1-(4-(Azetidin-1-yl)-6-(pyridin-4-yl)quinazolin-2-yl)-3-methylbutan-1-amine] showed an IC50 of 44 nM.
The same measure for `CC(C)CC(N)c1nc(N2CC2)c2cc(-c3ccncc3)ccc2n1` (centres unmarked) [Example 74, 1-(4-(Aziridin-1-yl)-6-(pyridin-4-yl)quinazolin-2-yl)-3-methylbutan-1-amine]: 263 nM; for `COc1cc2nc(CCC(C)C)nc(C)c2cc1-c1cnco1` [Example 75, 5-(2-Isopentyl-7-methoxy-4-methylquinazolin-6-yl)oxazole]: 590 nM; for `CC(C)CCc1nc(NCCO)c2cc(-c3cnco3)ccc2n1` [Example 76, 2-((2-Isopentyl-6-(oxazol-5-yl)quinazolin-4-yl)amino)ethanol]: 1810 nM.
The result for `COCCNc1nc(CCC(C)C)nc2ccc(-c3cnco3)cc12` [Example 77, 2-Isopentyl-N-(2-methoxyethyl)-6-(oxazol-5-yl)quinazolin-4-amine] reads 3460 nM.
`CC(C)CCc1nc(NCCN2CCCC2)c2cc(-c3cnco3)ccc2n1` [Example 78, 2-Isopentyl-6-(oxazol-5-yl)-N-(2-(pyrrolidin-1-yl)ethyl)quinazolin-4-amine] yielded an IC50 of 1090 nM. This IC50 is about 3.2-fold lower than that of the compound before.
In the case of `Cc1cnc(CNc2nc(CCC(C)C)nc3ccc(-c4cnco4)cc23)cn1` [Example 79], inhibition was half-maximal at 6600 nM (IC50).
`CC(C)CCc1nc(NCCCN(C)C)c2cc(-c3cnco3)ccc2n1` [Example 80, N^1-(2-Isopentyl-6-(oxazol-5-yl)quinazolin-4-yl)-N^3,N^3-dimethylpropane-1,3-diamine] showed an IC50 of 3320 nM.
The compound `CC(C)CCc1nc(NCCN(C)C)c2cc(-c3cnco3)ccc2n1` [Example 81, N^1-(2-Isopentyl-6-(oxazol-5-yl)quinazolin-4-yl)-N^2,N^2-dimethylethane-1,2-diamine] had an IC50 of 8610 nM.
The result for `COC(=O)CCNc1nc(CCC(C)C)nc2ccc(-c3cnco3)cc12` [Example 82, Methyl 3-((2-isopentyl-6-(oxazol-5-yl)quinazolin-4-yl)amino)propanoate] reads 4620 nM; that for `CC(C)CCc1nc(N2CCC2)c2cc(-c3cnco3)ccc2n1` [Example 83, 5-(4-(Azetidin-1-yl)-2-isopentylquinazolin-6-yl)oxazole], 812 nM; that for `CC(C)CCc1nc(NC2CC2)c2cc(-c3cnco3)ccc2n1` [Example 84, N-Cyclopropyl-2-isopentyl-6-(oxazol-5-yl)quinazolin-4-amine], 2580 nM.
Turning to `CCc1nc(C(N)CC(C)C)nc2cc(OC)c(-c3cnco3)cc12` (centres unmarked) [Example 85, 1-(4-Ethyl-7-methoxy-6-(oxazol-5-yl)quinazolin-2-yl)-3-methylbutan-1-amine], the IC50 was found to be 24 nM.
`CCc1nc(C(N)CC(C)C)nc2cc(OC)c(-c3ccncc3)cc12` (centres unmarked) [Example 88, 1-(4-Ethyl-7-methoxy-6-(pyridin-4-yl)quinazolin-2-yl)-3-methylbutan-1-amine] showed an IC50 of 932 nM.

One may read the IC50 as the point on the concentration scale where inhibition reaches its midpoint. A high value points to a need for much substance.

Source of the values: patent publication US20170239249A1, “QUINAZOLINE-BASED KINASE INHIBITORS” (Bristol-Myers Squibb Company, priority 2014, published 2017).
